According to ChEMBL document CHEMBL1208682, “New quinoline derivatives: synthesis and investigation of antibacterial and antituberculosis properties” (2010):
In brackets after ≈: the same amount, converted by molar mass.

test system: Mycobacterium tuberculosis; assay: Antituberculosis activity against multi drug-resistant Mycobacterium tuberculosis after 7 days using resazurin dye by broth microdilution assay; assay type: functional; conditions: 168 h

**Q.** How did the MIC turn out when `FC(F)(F)c1cc(N/N=C/c2cocc2Br)c2cccc(C(F)(F)F)c2n1` was run?
**A.** Its MIC is over 50 µM.

**Q.** With `O=C(NNc1cc(C(F)(F)F)nc2c(C(F)(F)F)cccc12)Nc1ccc(F)cc1` as the compound, how does the MIC read?
**A.** The MIC was 12.5 µM (≈ 5.4 µg/mL).

**Q.** Which MIC does the source give for `COCCNC(=S)NNc1cc(C(F)(F)F)nc2c(C(F)(F)F)cccc12` here?
**A.** The MIC was 25 µM (≈ 10.3 µg/mL).

**Q.** With `NNC(=O)c1ccncc1` [ISONIAZID] as the compound, how does the MIC read?
**A.** Its MIC is 12.5 µM (≈ 1.71 µg/mL).

**Q.** How did the MIC turn out when `CCCCCCC/C=N/Nc1cc(C(F)(F)F)nc2c(C(F)(F)F)cccc12` was run?
**A.** The MIC was 6.25 µM (≈ 2.53 µg/mL).

**Q.** With `Cc1cccc2c(/C=N/Nc3cc(C(F)(F)F)nc4c(C(F)(F)F)cccc34)c[nH]c12` as the compound, how does the MIC read?
**A.** The MIC was 12.5 µM (≈ 5.45 µg/mL).

**Q.** With `Cn1cc(Cl)c(/C=N/Nc2cc(C(F)(F)F)nc3c(C(F)(F)F)cccc23)n1` as the compound, how does the MIC read?
**A.** Its MIC is 6.25 µM (≈ 2.64 µg/mL).

**Q.** Which MIC does the source give for `COc1ccc(/C=N/Nc2cc(C(F)(F)F)nc3c(C(F)(F)F)cccc23)cc1O` here?
**A.** Its MIC is 12.5 µM (≈ 5.37 µg/mL).

**Q.** Which MIC does the source give for `CCCCCNC(=O)NNc1cc(C(F)(F)F)nc2c(C(F)(F)F)cccc12` here?
**A.** Its MIC is over 50 µM.

**Q.** With `CC(=O)OCc1ccc(/C=N/Nc2cc(C(F)(F)F)nc3c(C(F)(F)F)cccc23)o1` as the compound, how does the MIC read?
**A.** The MIC was over 50 µM.

**Q.** Which MIC does the source give for `N#Cc1cccc(NC(=O)NNc2cc(C(F)(F)F)nc3c(C(F)(F)F)cccc23)c1` here?
**A.** Its MIC is over 50 µM.

**Q.** Which MIC does the source give for `FC(F)(F)Oc1cccc(/C=N/Nc2cc(C(F)(F)F)nc3c(C(F)(F)F)cccc23)c1` here?
**A.** The MIC was 12.5 µM (≈ 5.84 µg/mL).

**Q.** With `Fc1ccccc1NC(=S)NNc1cc(C(F)(F)F)nc2c(C(F)(F)F)cccc12` as the compound, how does the MIC read?
**A.** The MIC was over 50 µM.

**Q.** Which MIC does the source give for `Cc1cc(C)cc(NC(=O)NNc2cc(C(F)(F)F)nc3c(C(F)(F)F)cccc23)c1` here?
**A.** Its MIC is 6.25 µM (≈ 2.76 µg/mL).

**Q.** How did the MIC turn out when `Cc1nc[nH]c1/C=N/Nc1cc(C(F)(F)F)nc2c(C(F)(F)F)cccc12` was run?
**A.** Its MIC is 6.25 µM (≈ 2.42 µg/mL).

**Q.** How did the MIC turn out when `FC(F)(F)c1cc(N/N=C/c2c[nH]cn2)c2cccc(C(F)(F)F)c2n1` was run?
**A.** The MIC was 6.25 µM (≈ 2.33 µg/mL).

**Q.** `Cn1cccc1/C=N/Nc1cc(C(F)(F)F)nc2c(C(F)(F)F)cccc12` was tested. Which MIC did it give?
**A.** Its MIC is 25 µM (≈ 9.66 µg/mL).

**Q.** How did the MIC turn out when `COc1ccc(/C=N/Nc2cc(C(F)(F)F)nc3c(C(F)(F)F)cccc23)c(F)c1` was run?
**A.** The MIC was 6.25 µM (≈ 2.7 µg/mL).

**Q.** How did the MIC turn out when `FC(F)C(F)(F)Oc1cccc(/C=N/Nc2cc(C(F)(F)F)nc3c(C(F)(F)F)cccc23)c1` was run?
**A.** Its MIC is 25 µM (≈ 12.5 µg/mL).

**Q.** Which MIC does the source give for `Cn1nnc2cc(/C=N/Nc3cc(C(F)(F)F)nc4c(C(F)(F)F)cccc34)ccc21` here?
**A.** The MIC was 25 µM (≈ 11 µg/mL).

**Q.** Which MIC does the source give for `COc1ccc2[nH]cc(/C=N/Nc3cc(C(F)(F)F)nc4c(C(F)(F)F)cccc34)c2c1` here?
**A.** Its MIC is over 50 µM.

**Q.** `FC(F)(F)c1cc(N/N=C/C2CCCCC2)c2cccc(C(F)(F)F)c2n1` was tested. Which MIC did it give?
**A.** The MIC was 6.25 µM (≈ 2.43 µg/mL).

**Q.** With `CO[C@H]1/C=C/O[C@@]2(C)Oc3c(C)c(O)c4c(O)c(c(/C=N/N5CCN(C)CC5)c(O)c4c3C2=O)NC(=O)/C(C)=C\C=C\[C@H](C)[C@H](O)[C@@H](C)[C@@H](O)[C@@H](C)[C@H](OC(C)=O)[C@@H]1C` [RIFAMPIN] as the compound, how does the MIC read?
**A.** Its MIC is 25 µM (≈ 20.6 µg/mL).

**Q.** `FC(F)(F)c1cc(N/N=C/c2cccnc2)c2cccc(C(F)(F)F)c2n1` was tested. Which MIC did it give?
**A.** The MIC was over 50 µM.

**Q.** Which MIC does the source give for `FC(F)(F)c1cc(N/N=C/c2ccc3nonc3c2)c2cccc(C(F)(F)F)c2n1` here?
**A.** Its MIC is 12.5 µM (≈ 5.32 µg/mL).

**Q.** How did the MIC turn out when `FC(F)(F)c1cc(N/N=C/c2cccs2)c2cccc(C(F)(F)F)c2n1` was run?
**A.** The MIC was over 50 µM.

**Q.** How did the MIC turn out when `COc1ccccc1NC(=O)NNc1cc(C(F)(F)F)nc2c(C(F)(F)F)cccc12` was run?
**A.** Its MIC is 12.5 µM (≈ 5.55 µg/mL).

**Q.** Which MIC does the source give for `FC(F)(F)c1cc(N/N=C/c2ccc3c(c2)CCO3)c2cccc(C(F)(F)F)c2n1` here?
**A.** Its MIC is 12.5 µM (≈ 5.32 µg/mL).

**Q.** For `Oc1cc(F)ccc1/C=N/Nc1cc(C(F)(F)F)nc2c(C(F)(F)F)cccc12`, which MIC is on record?
**A.** Its MIC is over 50 µM.
